These results are taken from US5378836A, “Rapamycin oximes and hydrazones” (American Home Products Corporation, priority 1993, dated 1995).

Where a name gives a salt, the structure may show the parent alone. Read-outs that look alike come from different tables or passages of the source.

The test system of test [1] is thymocytes (T-cell proliferation). As to the kind of experiment: comitogen-induced thymocyte proliferation procedure (LAF). The class given is cell-based, BALB/c mice. Particulars: Mus musculus; for inhibition at 0.1 µM: T-cell, read-out: LAF % Inhib. (percent inhibition of T-cell proliferation); for IC50: Thymocyte, read-out: LAF IC50. How it is done:
(§1) Immunosuppressive activity for representative compounds of this invention was evaluated in an in vitro standard pharmacological test procedure to measure lymphocyte proliferation (LAF) and in an in vivo standard pharmacological test procedure which evaluated the survival time of a pinch skin graft.
The comitogen-induced thymocyte proliferation procedure (LAF) was used as an in vitro measure of the immunosuppressive effects of representative compounds. Briefly, cells from the thymus of normal BALB/c mice are cultured for 72 hours with PHA and IL-1 and pulsed with tritiated thymidine during the last six hours. Cells are cultured with and without various concentrations of rapamycin, cyclosporin A, or test compound. Cells are harvested and incorporated radioactivity is determined. Inhibition of lymphoproliferation is assessed as percent change in counts per minute from non-drug treated controls. For each compound evaluated, rapamycin was also evaluated for the purpose of comparison. An IC50 was obtained for each test compound as well as for rapamycin.

Test [2] has as its system pinch skin graft from male BAB/c donors transplanted to male C3 H(H-2K) recipients. The test is described as follows: survival time of a pinch skin graft. The class given is in vivo, male C3 H(H-2K) recipients (mouse strain). Particulars: dose of 4 mg/kg, intraperitoneally or orally; untreated control usually rejected within 6-7 days. How it is done: as §1
Representative compounds of this invention were also evaluated in an in vivo test procedure designed to determine the survival time of pinch skin graft from male BAB/c donors transplanted to male C3 H(H-2K) recipients. The method is adapted from Billingham R. E. and Medawar P. B., J. Exp. Biol. 28:385-402, (1951). Briefly, a pinch skin graft from the donor was grafted on the dorsum of the recipient as a allograft, and an isograft was used as control in the same region. The recipients were treated with either varying concentrations of test compounds intraperitoneally or orally. Rapamycin was used as a test control. Untreated recipients serve as rejection control. The graft was monitored daily and observations were recorded until the graft became dry and formed a blackened scab. This was considered as the rejection day. The mean graft survival time (number of days±S.D.) of the drug treatment group was compared with the control group. […] Results are expressed as the mean survival time in days. Untreated (control) pinch skin grafts are usually rejected within 6-7 days. The results shown in Table 1 are based on a dose of 4 mg/kg of test compound. A survival time of 12.0±1.7 days was obtained for rapamycin at 4 mg/kg.

A further test deals with Candida albicans. Particulars: both in vitro and in vivo; cited from earlier work.
For test [3] the following is noted: alone or in combination with picibanil; cited from earlier work.
In test [4] the test system is experimental allergic encephalomyelitis model. The note with it: a model for multiple sclerosis; cited from earlier work.
For another test, the system named is IgE-like antibodies. Particulars: in vivo; cited from earlier work.
Setting [5] is: thymus cells cultured 72 h with PHA and IL-1, tritiated thymidine during last six hours.

`CO[C@H]1C[C@@H]2CC[C@@H](C)[C@@](O)(O2)C(=O)C(=O)N2CCCC[C@H]2C(=O)O[C@H]([C@H](C)C[C@@H]2CC[C@@H](OC(=O)NCCc3ccccn3)[C@H](OC)C2)CC(=NO)[C@H](C)/C=C(\C)[C@@H](O)[C@@H](OC)C(=O)[C@H](C)C[C@H](C)/C=C/C=C/C=C/1C` [Example 2, Rapamycin 27-oxime, 42-ester with 2-(pyridin-2-yl)-ethyl-carbamic acid]: in test [1], the inhibition at 0.1 µM is 94%. The IC50 (usually the concentration needed to halve the response being measured) in test [1] (setting [5]) came to 0.6 nM. Besides, the “Skin Graft mean survival time (days ± SD)” value in test [2] was 8.0 ± 0.6 days.
For `CO[C@H]1C[C@@H]2CC[C@@H](C)[C@@](O)(O2)C(=O)C(=O)N2CCCC[C@H]2C(=O)O[C@H]([C@H](C)C[C@@H]2CC[C@@H](OC(=O)NCCO)[C@H](OC)C2)CC(=NO)[C@H](C)/C=C(\C)[C@@H](O)[C@@H](OC)C(=O)[C@H](C)C[C@H](C)/C=C/C=C/C=C/1C` [Example 4, Rapamycin 27-oxime, 42-ester with 2-hydroxyethyl carbamic acid], in test [1], the inhibition at 0.1 µM is 89%. In test [1] (setting [5]), the IC50 stood at 17.8 nM.
For the molecule `CO[C@H]1C[C@@H]2CC[C@@H](C)[C@@](O)(O2)C(=O)C(=O)N2CCCC[C@H]2C(=O)O[C@H]([C@H](C)C[C@@H]2CC[C@@H](OS(=O)(=O)O)[C@H](OC)C2)CC(=NO)[C@H](C)/C=C(\C)[C@@H](O)[C@@H](OC)C(=O)[C@H](C)C[C@H](C)/C=C/C=C/C=C/1C` [Example 6, Rapamycin 27-oxime, 42-sulfate ester pyridine salt], in test [1], the inhibition at 0.1 µM turned out to be 71%. Moreover, the “Skin Graft mean survival time (days ± SD)” value in test [2] came to 9.8 ± 0.4 days.
In the case of `CO[C@H]1C[C@@H]2CC[C@@H](C)[C@@](O)(O2)C(=O)C(=O)N2CCCC[C@H]2C(=O)O[C@H]([C@H](C)C[C@@H]2CC[C@@H](OC(N)=O)[C@H](OC)C2)CC(=NO)[C@H](C)/C=C(\C)[C@@H](O)[C@@H](OC)C(=O)[C@H](C)C[C@H](C)/C=C/C=C/C=C/1C` [Example 8, Rapamycin 27-oxime, 42-ester with carbamic acid], in test [1], the inhibition at 0.1 µM came out at 87%. In addition, in test [1] (setting [5]), the half-maximal inhibitory concentration (IC50) turned out to be 13.9 nM. In test [2], the “Skin Graft mean survival time (days ± SD)” value is given as 7.0 ± 0.0 days.
As for `CO[C@H]1C[C@@H]2CC[C@@H](C)[C@@](O)(O2)C(=O)C(=O)N2CCCC[C@H]2C(=O)O[C@H]([C@H](C)C[C@@H]2CC[C@@H](OS(=O)(=O)c3cccc4cccnc34)[C@H](OC)C2)CC(=NO)[C@H](C)/C=C(\C)[C@@H](O)[C@@H](OC)C(=O)[C@H](C)C[C@H](C)/C=C/C=C/C=C/1C` [Example 10, Rapamycin 27-oxime, 42-ester with 8-quinolinesulfonic acid], the inhibition at 0.1 µM in test [1] was found to be 20%. For the same molecule, the 50% inhibitory concentration (IC50) in test [1] (setting [5]) turned out to be 300 nM.
The matching figures for `CO/N=C1\C[C@@H]([C@H](C)C[C@@H]2CC[C@@H](OS(=O)(=O)c3cccc4cccnc34)[C@H](OC)C2)OC(=O)[C@@H]2CCCCN2C(=O)C(=O)[C@]2(O)O[C@@H](CC[C@H]2C)C[C@H](OC)/C(C)=C/C=C/C=C/[C@@H](C)C[C@@H](C)C(=O)[C@H](OC)[C@H](O)/C(C)=C/[C@H]1C` [Example 11, Rapamycin (E)-27-O-(methyl)oxime, 42-ester with 8-quinolinesulfonic acid]: 17% and 255 nM.
With `CO/N=C1/C[C@@H]([C@H](C)C[C@@H]2CC[C@@H](OS(=O)(=O)c3cccc4cccnc34)[C@H](OC)C2)OC(=O)[C@@H]2CCCCN2C(=O)C(=O)[C@]2(O)O[C@@H](CC[C@H]2C)C[C@H](OC)/C(C)=C/C=C/C=C/[C@@H](C)C[C@@H](C)C(=O)[C@H](OC)[C@H](O)/C(C)=C/[C@H]1C` [Example 12, Rapamycin (Z)-27-O-(methyl)oxime, 42-ester with 8-quinolinesulfonic acid], the inhibition at 0.1 µM in test [1] was found to be 30%. In test [1] (setting [5]), the IC50 turned out to be 210 nM.
The matching figures for `CO/N=C1/C[C@@H]([C@H](C)C[C@@H]2CC[C@@H](OC(=O)Nc3ccc([N+](=O)[O-])cc3)[C@H](OC)C2)OC(=O)[C@@H]2CCCCN2C(=O)C(=O)[C@]2(O)O[C@@H](CC[C@H]2C)C[C@H](OC)/C(C)=C/C=C/C=C/[C@@H](C)C[C@@H](C)C(=O)[C@H](OC)[C@H](O)/C(C)=C/[C@H]1C` [Example 13, Rapamycin (Z)-27-O-(methyl)oxime, 42-ester with 4-nitrophenylcarbamic acid]: 14% and 580 nM.
In the case of `CO/N=C1/C[C@@H]([C@H](C)C[C@@H]2CC[C@@H](OS(=O)(=O)c3ccc(C)cc3)[C@H](OC)C2)OC(=O)[C@@H]2CCCCN2C(=O)C(=O)[C@]2(O)O[C@@H](CC[C@H]2C)C[C@H](OC)/C(C)=C/C=C/C=C/[C@@H](C)C[C@@H](C)C(=O)[C@H](OC)[C@H](O)/C(C)=C/[C@H]1C` [Example 14, Rapamycin (Z)-27-O-(methyl)oxime, 42-ester with 4-methylbenzenesulfonic acid], in test [1], the inhibition at 0.1 µM is 20%. For the same molecule, in test [1] (setting [5]), the concentration for half-maximal inhibition (IC50) is greater than 1000 nM.
`CCOC(C)O[C@@H]1CC[C@@H](C[C@@H](C)[C@@H]2C/C(=N/OC)[C@H](C)/C=C(\C)[C@@H](O)[C@@H](OC)C(=O)[C@H](C)C[C@H](C)/C=C/C=C/C=C(\C)[C@@H](OC)C[C@@H]3CC[C@@H](C)[C@@](O)(O3)C(=O)C(=O)N3CCCC[C@H]3C(=O)O2)C[C@H]1OC` (stereo partly drawn) [Example 16, 42-O-(1-Ethoxy-ethyl)-rapamycin-(Z)-27-O-(methyl)oxime]: in test [1], the inhibition at 0.1 µM came to 47%. Further, in test [1] (setting [5]), the IC50 is 100 nM.
`CCOC(C)O[C@@H]1CC[C@@H](C[C@@H](C)[C@@H]2C/C(=N\OC)[C@H](C)/C=C(\C)[C@@H](O)[C@@H](OC)C(=O)[C@H](C)C[C@H](C)/C=C/C=C/C=C(\C)[C@@H](OC)C[C@@H]3CC[C@@H](C)[C@@](O)(O3)C(=O)C(=O)N3CCCC[C@H]3C(=O)O2)C[C@H]1OC` (stereo partly drawn) [Example 17, 42-O-(1-Ethoxy-ethyl)-rapamycin-(E)-27-O-(methyl)oxime]: the inhibition at 0.1 µM in test [1] came to 73%. Besides, the IC50 in test [1] (setting [5]) was 30 nM. Also, the “Skin Graft mean survival time (days ± SD)” value in test [2] came out at 7.8 ± 0.4 days.
As for `CCCCNC(=O)O[C@@H]1CC[C@@H](C[C@@H](C)[C@@H]2C/C(=N/OC)[C@H](C)/C=C(\C)[C@@H](O)[C@@H](OC)C(=O)[C@H](C)C[C@H](C)/C=C/C=C/C=C(\C)[C@@H](OC)C[C@@H]3CC[C@@H](C)[C@@](O)(O3)C(=O)C(=O)N3CCCC[C@H]3C(=O)O2)C[C@H]1OC` [Example 18, Rapamycin (Z)-27-O-(methyl)oxime-42-ester with butylcarbamic acid], the inhibition at 0.1 µM in test [1] is 18%. In addition, the IC50 in test [1] (setting [5]) amounted to 279 nM.
For `CO[C@H]1C[C@@H]2CC[C@@H](C)[C@@](O)(O2)C(=O)C(=O)N2CCCC[C@H]2C(=O)O[C@H]([C@H](C)C[C@@H]2CC[C@@H](O)[C@H](OC)C2)CC(=O)[C@H](C)/C=C(\C)[C@@H](O)[C@@H](OC)C(=O)[C@H](C)C[C@H](C)/C=C/C=C/C=C/1C` [rapamycin], the IC50 in test [1] was in the range of 0.4 to 9.8 nM. Moreover, the “Skin Graft mean survival time (days ± SD)” value in test [2] is 12.0 ± 1.7 days. In addition, the “antifungal activity, particularly against Candida albicans” value in the test on Candida albicans was “found to have antifungal activity, particularly against Candida albicans, both in vitro and in vivo”. In addition, the antitumor activity result in test [3] is “has been shown to have antitumor activity”. In test [4], the “effect in the experimental allergic encephalomyelitis model” value was “effective in the experimental allergic encephalomyelitis model”. For the same molecule, the “inhibition of the formation of IgE-like antibodies” value with IgE-like antibodies is on record as “effectively inhibited the formation of IgE-like antibodies”.
